From patent publication US20190135755A1, “CRYSTAL POLYMORPHISM OF KCNQ2-5 CHANNEL ACTIVATOR” (ONO PHARMACEUTICAL CO., LTD., priority 2016, published 2019)
In brackets after ≈: the same amount, converted by molar mass. Values belong to the compound of their own block, whether it stands above or below them.

Legend:
Human KCNQ2/3 = molecular target: T1, Human KCNQ2/3 (Homo sapiens, UniProt O43525+O43526); test: Opening action with respect to KCNQ2/3 channel by depolarization stimulation (thallium influx, FLIPR); type: cell-based; conditions: human KCNQ2/3 expressing CHO-DHFR- cells; concentration giving 50% of maximum reaction of retigabine (10 μM); 5 mM potassium and 0.5 mM thallium; read-out: opening action (ECrtg50 value) with respect to the KCNQ2/3 channel
T1 construct: expressed in transfected cells; host or cells: CHO-DHFR- cells
T1 sequence (O43526 whole entry): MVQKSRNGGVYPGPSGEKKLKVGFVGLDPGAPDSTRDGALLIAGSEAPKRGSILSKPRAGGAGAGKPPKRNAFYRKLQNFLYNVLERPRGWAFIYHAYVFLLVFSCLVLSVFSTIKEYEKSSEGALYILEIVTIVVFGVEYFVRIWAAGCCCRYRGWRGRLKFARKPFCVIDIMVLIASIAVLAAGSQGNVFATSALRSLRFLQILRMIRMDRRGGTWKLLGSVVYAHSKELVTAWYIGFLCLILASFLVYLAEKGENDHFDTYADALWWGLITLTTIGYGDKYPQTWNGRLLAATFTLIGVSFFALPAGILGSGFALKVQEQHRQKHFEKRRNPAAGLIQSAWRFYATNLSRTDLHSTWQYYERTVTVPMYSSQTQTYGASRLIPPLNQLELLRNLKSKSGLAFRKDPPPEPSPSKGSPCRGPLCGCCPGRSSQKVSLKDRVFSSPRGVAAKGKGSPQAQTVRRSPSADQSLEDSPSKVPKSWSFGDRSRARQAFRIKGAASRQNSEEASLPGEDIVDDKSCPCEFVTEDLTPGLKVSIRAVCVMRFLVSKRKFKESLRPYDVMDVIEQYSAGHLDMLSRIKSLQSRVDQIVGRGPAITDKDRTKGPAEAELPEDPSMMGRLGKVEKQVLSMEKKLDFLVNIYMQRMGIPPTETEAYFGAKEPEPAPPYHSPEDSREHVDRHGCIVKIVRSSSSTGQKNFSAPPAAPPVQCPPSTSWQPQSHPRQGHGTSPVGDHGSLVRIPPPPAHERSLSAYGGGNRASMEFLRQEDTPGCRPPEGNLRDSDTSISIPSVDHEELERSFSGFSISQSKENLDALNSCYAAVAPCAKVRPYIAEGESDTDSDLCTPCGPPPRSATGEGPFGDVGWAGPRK
T1 sequence (O43525 whole entry): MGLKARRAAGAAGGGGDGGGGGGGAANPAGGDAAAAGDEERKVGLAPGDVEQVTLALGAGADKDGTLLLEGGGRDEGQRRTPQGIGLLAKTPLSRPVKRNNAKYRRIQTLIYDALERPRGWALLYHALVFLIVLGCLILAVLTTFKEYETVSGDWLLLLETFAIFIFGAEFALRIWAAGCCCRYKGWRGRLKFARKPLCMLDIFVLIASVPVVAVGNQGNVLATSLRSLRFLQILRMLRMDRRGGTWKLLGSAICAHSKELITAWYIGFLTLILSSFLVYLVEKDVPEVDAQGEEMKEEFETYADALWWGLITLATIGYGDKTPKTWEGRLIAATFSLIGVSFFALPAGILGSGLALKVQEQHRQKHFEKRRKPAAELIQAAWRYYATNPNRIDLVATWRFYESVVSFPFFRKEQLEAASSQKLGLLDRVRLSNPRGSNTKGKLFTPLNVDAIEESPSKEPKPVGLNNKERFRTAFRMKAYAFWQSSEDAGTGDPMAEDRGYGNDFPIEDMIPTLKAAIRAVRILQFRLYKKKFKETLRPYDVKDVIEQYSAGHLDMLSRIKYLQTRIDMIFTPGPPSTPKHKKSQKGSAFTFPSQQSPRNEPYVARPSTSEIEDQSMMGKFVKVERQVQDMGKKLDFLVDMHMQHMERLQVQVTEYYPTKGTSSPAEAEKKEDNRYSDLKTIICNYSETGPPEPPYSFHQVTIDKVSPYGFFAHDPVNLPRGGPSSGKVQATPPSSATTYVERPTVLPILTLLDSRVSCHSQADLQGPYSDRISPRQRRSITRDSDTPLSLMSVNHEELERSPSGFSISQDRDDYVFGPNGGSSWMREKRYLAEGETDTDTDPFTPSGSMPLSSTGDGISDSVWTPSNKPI
Method: Human KCNQ2/3 expression cells (CHO-DHFR-cells) were seeded in each well of a 384-well plate (collagen-coated, black, clear bottom) at 0.5×10^4 cells/50 μL per well and cultured in a MEM ALPHA medium (containing 10 vol % inactivated (56° C., 30 min) fetal bovine serum, 100 IU/mL penicillin, 100 μg/mL streptomycin, and 2 mM L-glutamine) at 37° C. in 5% CO2 for 18 to 24 hours. After the medium in the plate was removed, incubation (room temperature, 60 minutes, shading) was performed in a loading buffer (prepared by the method described in the manual of FluxOR Thallium Detection Kit (Invitrogen, F10016, F10017)). A KCNQ2/3 channel opening action (thallium influx into cells) by depolarization stimulation (5 mM potassium and 0.5 mM thallium) was measured by FLIPR TETRA (Molecular Devices). The compound I was treated 5 minutes before the depolarization stimulation, and the reaction induced by the depolarization stimulation was measured over time for 180 seconds. The channel opening action of the compound I was evaluated based on the change amount of the fluorescence intensity from the time before the depolarization stimulation to the time after the elapse of 180 seconds, and the concentration (ECrtg50) satisfying 50% of the fluorescence intensity change of a maximum reaction (in the treatment at 10 μM) of retigabine under the conditions of this experiment was calculated.

Solubility test = type: physicochemical; conditions: aqueous buffer, kinetic from dmso stock, Japanese Pharmacopoeia dissolution test second solution (pH 6.8), room temperature, quantification range 5 to 100 μM
Method: A calibration curve solution was prepared at 0.1, 0.4, and 2 μM by diluting a test substance (a 10 mM DMSO solution) with acetonitrile and adding acetonitrile containing an internal standard substance (candesartan).
A sample solution was prepared as follows. 5 μL of the compound I (a 10 mM DMSO solution) was added to 495 μL of the Japanese Pharmacopoeia dissolution test second solution (pH: 6.8), followed by stirring at room temperature for 5 hours. Then, the solution was transferred to a solubility filter plate and subjected to suction filtration. The filtrate (20 μL) was diluted with acetonitrile, followed by adding acetonitrile containing an internal standard substance (candesartan).
Each of the calibration curve and sample solutions (5 μL) was injected into LC-MS/MS (Discovery Max, manufactured by Thermo Scientific, Inc.) and subjected to quantification (quantification range: 5 to 100 μM). The solubility in the case where the value equal to or less than the quantification range was obtained was defined as <5 μM, and the solubility in the case where the value equal to or more than the quantification range was obtained was defined as […].

[1] = Chemical stability test of crystal form under storage conditions; type: physicochemical; conditions: all storage conditions, compared with the sample
Method: The stability of the crystal form of the present invention was examined under various storage conditions. After storage, the residual ratio (%) of each of the samples stored under the respective conditions with respect to the area percentage of the sample stored at −20° C. was calculated by HPLC. Further, by using a powder X-ray diffraction spectrum, peaks were compared with those of the sample. The appearance was observed by visual inspection and compared with that of the sample.
<Storage Conditions and Sampling Time>
25° C.-60% RH (opened): 3 months
40° C.-75% RH (opened): 3 months
2500 Lux: 20D (shading, transparent)

[2] = tested on: bladder extracted from rat; test: Relaxing action on bladder extracted from rat (Magnus test, carbachol contraction); conditions: concentration at which percent change in tension is −20%; carbachol 1 μM contraction; female Wistar rat bladder strip
Method: Female Jcl:Wistar rats (CLEA Japan, Inc., body weight at use: 170 to 200 g) were anesthetized by intraperitoneal administration of about 40 mg/kg of pentobarbital (Somnopentyl, Schering Plough Animal Health Corporation), and killed by bloodletting. The bladder was extracted by abdominal incision and immediately thereafter immersed in ice-cooled Krebs buffer (Krebs Ringer bicarbonate buffer (Sigma-Aldlich Co. LLC) supplemented with sodium hydrogen carbonate (final concentration: 15 mM) and calcium chloride (final concentration: 2.5 mM)) saturated with a mixed gas (95% O2, 5% CO2).
The bladder body extracted from each rat was cut into an oblong strip shape (about 10×3 mm), whereby a specimen was prepared on ice. Immediately thereafter, the specimen was suspended in a Magnus tube filled with Krebs buffer (37° C.) bubbled with the mixed gas while applying a tension load of 500 mg thereto. Incidentally, the specimen was prepared within 24 hours after extracting the tissue. […]
The tension (mg) in the extracted bladder was used as an evaluation item. The tension was read using analysis software WAVE THERMO 1000. […] The percent change in tension (%) is calculated according to the following formula. […]
The value at which the percent change in tension (%) was −20% was calculated as IC20 and used as an index of the relaxing action on the extracted bladder.

[3] = Evaluation of stability in human liver microsomes; type: in vitro ADME; conditions: 0.5 mg/mL human liver microsomes, NADPH, 37° C., 15 minutes, 5 μmol/L
Method: A test compound (a 10 mmol/L DMSO solution, 5 μL) was diluted with a 50% aqueous acetonitrile solution (195 μL), whereby a 0.25 mmol/L solution was prepared.
To a reaction vessel preheated to 37° C., 0.5 mg/mL of human liver microsomes (XenoTech, LLC) and 245 μL of a 0.1 M phosphate buffer solution (pH 7.4) containing NADPH co-factor (BD Biosciences) were added, followed by preincubation for 5 minutes, and thereafter, the above-prepared test compound solution (5 μL) was added thereto to start a reaction (final concentration: 5 μmol/L). Immediately after the start, a 20 μL portion was collected and added to 180 μL of acetonitrile containing an internal standard substance (warfarin) to stop the reaction. A 20 μL portion of this solution was stirred with 180 μL of a 50% aqueous acetonitrile solution on a plate equipped with a deproteinization filter, followed by suction filtration, and the filtrate was used as a standard sample.
After the above-prepared reaction solution was incubated at 37° C. for 15 minutes, a 20 μL portion of the solution was added to 180 μL of cooled acetonitrile (containing warfarin serving as an internal standard substance) to stop the reaction. […]
A residual ratio (%) was calculated as follows. […]

hERG channel = molecular target: T2, hERG channel (Homo sapiens, UniProt Q12809); test: Evaluation of action on hERG IKr current (patch-clamp); type: cell-based; conditions: HEK293 cells overexpressing hERG, maximum tail current, 10 minutes after application, read-out: 50% hERG channel inhibitory activity
T2 construct: expressed in transfected cells; host or cells: HEK293 cells
T2 sequence (Q12809 whole entry): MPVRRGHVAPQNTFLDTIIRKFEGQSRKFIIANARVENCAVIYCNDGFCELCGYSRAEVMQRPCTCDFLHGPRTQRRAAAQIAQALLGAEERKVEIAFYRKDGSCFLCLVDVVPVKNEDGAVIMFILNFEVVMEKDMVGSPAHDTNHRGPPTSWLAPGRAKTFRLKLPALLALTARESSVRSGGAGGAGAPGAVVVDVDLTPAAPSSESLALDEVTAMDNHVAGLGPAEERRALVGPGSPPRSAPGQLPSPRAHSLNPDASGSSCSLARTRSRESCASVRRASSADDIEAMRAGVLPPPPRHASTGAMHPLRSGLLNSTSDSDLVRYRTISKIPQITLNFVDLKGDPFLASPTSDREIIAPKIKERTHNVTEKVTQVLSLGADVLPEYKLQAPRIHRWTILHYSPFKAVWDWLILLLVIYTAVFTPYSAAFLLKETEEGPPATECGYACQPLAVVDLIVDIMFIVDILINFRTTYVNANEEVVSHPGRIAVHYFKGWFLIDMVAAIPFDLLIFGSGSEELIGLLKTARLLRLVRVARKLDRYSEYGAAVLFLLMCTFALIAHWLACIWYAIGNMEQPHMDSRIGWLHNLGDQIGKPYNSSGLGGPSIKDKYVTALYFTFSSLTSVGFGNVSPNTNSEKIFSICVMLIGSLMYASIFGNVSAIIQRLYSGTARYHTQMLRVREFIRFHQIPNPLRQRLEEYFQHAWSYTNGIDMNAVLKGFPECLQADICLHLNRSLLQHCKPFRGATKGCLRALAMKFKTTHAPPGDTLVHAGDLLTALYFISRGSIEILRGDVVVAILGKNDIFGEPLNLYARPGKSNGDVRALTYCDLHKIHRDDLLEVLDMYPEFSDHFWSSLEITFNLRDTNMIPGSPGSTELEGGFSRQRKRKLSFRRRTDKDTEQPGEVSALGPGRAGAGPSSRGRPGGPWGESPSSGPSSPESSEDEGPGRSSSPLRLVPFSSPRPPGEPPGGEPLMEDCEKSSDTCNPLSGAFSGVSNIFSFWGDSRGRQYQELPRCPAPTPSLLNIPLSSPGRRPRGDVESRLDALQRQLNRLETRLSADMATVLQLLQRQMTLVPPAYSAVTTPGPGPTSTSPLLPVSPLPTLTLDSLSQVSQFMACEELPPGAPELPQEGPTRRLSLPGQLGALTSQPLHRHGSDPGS
Method: By using HEK293 cells overexpressing a human ether-a-go-go-related gene (hERG), the maximum tail current of the hERG IKr current induced by redepolarization pulse subsequent to depolarization pulse was measured by a patch-clamp method. The percent change (suppression rate) after 10 minutes from application of a test substance with respect to the maximum tail current before the application of the test substance was calculated (see, Biophysical Journal, vol. 74, pp. 230-241 (1998)).

[4] = Water vapor adsorption/desorption isotherm measurement; type: physicochemical; conditions: 25° C., relative humidity of 50% RH or more, based on mass when dried (0% RH)
Method: (3) Water Vapor Adsorption/Desorption Isotherm Measurement
Device: DVS Intrinsic, manufactured by SMS Co., Ltd.
Change in relative humidity: 0% to 95% (5% STEP)
STEP transition criterion: percent change in weight: 0.002%/min
A change in mass when the humidity was changed in a stepwise manner (relative humidity: from 0% RH to 95% RH) at 25° C. was recorded over time, and an equilibrium mass at each humidity was determined. Subsequently, based on the mass when dried (0% RH), the percent change in mass at each humidity and the hydration number were determined.

Structure (SMILES): CC(O)(c1ccc(NC(=O)NCc2ccc(C(F)(F)F)cn2)cc1)C(F)(F)F (centres unmarked) [Comparative Example 1, 1-[4-(1,1,1-trifluoro-2-hydroxy-2-propanyl)phenyl]-3-{[5-(trifluoromethyl)-2-pyridinyl]methyl}urea]
EC50 (Human KCNQ2/3): > 10000 nM

Structure (SMILES): O=C(Cc1ccc(F)cc1)Nc1c(Cl)cc(Cl)cc1Br [Comparative Example 2, N-(2-bromo-4,6-dichlorophenyl)-2-(4-fluorophenyl)acetamide, reference compound]
solubility at 5 h (Solubility test): < 5 µM | EC50 (Human KCNQ2/3): 200 nM

Now from value to compound, other results behind:

appearance after storage (visual inspection) [1]: a change in appearance was not observed
Structure (SMILES): C[C@](O)(c1cc(Cl)c(NC(=O)NCc2ccc(Cl)cn2)c(Cl)c1)C(F)(F)F [A crystal, A crystal of 1-[(5-chloro-2-pyridinyl)methyl]-3-{2,6-dichloro-4-[(2S)-1,1,1-trifluoro-2-hydroxy-2-propanyl]phenyl}urea]
powder X-ray diffraction spectrum after storage [1]: an increase in the number of peaks was not observed

residual ratio (stability against human liver microsomes) [3]: 87% | solubility at 5 h (Solubility test): 98 µM (≈ 43.4 µg/mL) | EC50 (Human KCNQ2/3): 600 nM
Structure (SMILES): C[C@](O)(c1cc(Cl)c(NC(=O)NCc2ccc(Cl)cn2)c(Cl)c1)C(F)(F)F [compound I, 1-[(5-chloro-2-pyridinyl)methyl]-3-{2,6-dichloro-4-[(2S)-1,1,1-trifluoro-2-hydroxy-2-propanyl]phenyl}urea]
IC20 [2]: 500 nM | IC50 (hERG channel): > 10000 nM

percent change in mass [4]: 4%
Structure (SMILES): C[C@](O)(c1cc(Cl)c(NC(=O)NCc2ccc(Cl)cn2)c(Cl)c1)C(F)(F)F.O [H crystal, Crystal of hydrate (H crystal) of 1-[(5-chloro-2-pyridinyl)methyl]-3-{2,6-dichloro-4-[(2S)-1,1,1-trifluoro-2-hydroxy-2-propanyl]phenyl}urea]
